# Laboratory results from the supplement of paper PMC11061612.
# How the values were obtained:
# Test in all cases: combination Emax (second highest fraction inhibited in the dose matrix, 72 h); higher = more inhibition; extreme values may be limits of the assay
# [1] = system: GB-1 (Glioblastoma)
# Outline: (§1)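 Cell lines in DMEM/F12 or RPMI with 10% FBS were plated in 1536-well plates, held 24 hours at 37°C, 5% CO2, then given two-drug dose matrices for 72 hours (DMSO typically 0.2%). Viability was read by CellTiter-Glo 2.0 luminescence and scaled as inhibition from 0 (vehicle wells) to 1 (blank wells). Combination Emax is the second-highest inhibition in the matrix; Bliss excess is observed combination effect minus expected EA + EB − EA·EB, EA and EB being single-agent effects.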
# [2] = system: NCI-H23 (Lung Adenocarcinoma)
# Outline: as §1
# [3] = system: LK-2 (Squamous Cell Lung Carcinoma)
# Outline: as §1
# [4] = system: OAW-42 (Ovarian Carcinoma)
# Outline: as §1
# [5] = system: PANC-03-27 (Pancreatic Carcinoma)
# Outline: as §1
# [6] = system: SF539 (Glioblastoma)
# Outline: as §1
SMILES,combination Emax [1],combination Emax [2],combination Emax [3],combination Emax [4],combination Emax [5],combination Emax [6]
"CN(CCO)CC[C@H](CSc1ccccc1)Nc1ccc(S(=O)(=O)NC(=O)c2ccc(N3CCC([C@@H](O)c4ccccc4-c4ccc(Cl)cc4)CC3)cc2)cc1S(=O)(=O)C(F)(F)F [AZD4320] + C1CN(CCC1(C(=O)N[C@@H](CCO)C2=CC=C(C=C2)Cl)N)C3=NC=NC4=C3C=CN4 [Capivasertib] (first compound max 1 µM, 7x7, partner max 3 µM)",0.117,0.093,0.655,0.282,0.25,0.461
"CN(CCO)CC[C@H](CSc1ccccc1)Nc1ccc(S(=O)(=O)NC(=O)c2ccc(N3CCC([C@@H](O)c4ccccc4-c4ccc(Cl)cc4)CC3)cc2)cc1S(=O)(=O)C(F)(F)F [AZD4320] + C=CCn1c(=O)c2cnc(Nc3ccc(N4CCN(C)CC4)cc3)nc2n1-c1cccc(C(C)(C)O)n1 [AZD1775] (first compound max 1 µM, partner max 1 µM)",0.223,0.832,0.992,0.496,0.985,0.978
"CN(CCO)CC[C@H](CSc1ccccc1)Nc1ccc(S(=O)(=O)NC(=O)c2ccc(N3CCC([C@@H](O)c4ccccc4-c4ccc(Cl)cc4)CC3)cc2)cc1S(=O)(=O)C(F)(F)F [AZD4320] + CCN(CCO)CCCOc1ccc2c(Nc3cc(CC(=O)Nc4cccc(F)c4)[nH]n3)ncnc2c1 [AZD2811] (first compound max 1 µM, 7x7, partner max 1 µM)",0.117,0.216,0.967,0.14,0.638,0.584
"CN(CCO)CC[C@H](CSc1ccccc1)Nc1ccc(S(=O)(=O)NC(=O)c2ccc(N3CCC([C@@H](O)c4ccccc4-c4ccc(Cl)cc4)CC3)cc2)cc1S(=O)(=O)C(F)(F)F [AZD4320] + CN(C)CCCOc1ccc(-c2ccc3ncc4c(c3c2)n(C2CCOCC2)c(=O)n4C)cn1 [AZD0156] (first compound max 1 µM, 7x7, partner max 1 µM)",0.0923,0.104,0.712,0.261,0.33,0.27
"CN(CCO)CC[C@H](CSc1ccccc1)Nc1ccc(S(=O)(=O)NC(=O)c2ccc(N3CCC([C@@H](O)c4ccccc4-c4ccc(Cl)cc4)CC3)cc2)cc1S(=O)(=O)C(F)(F)F [AZD4320] + C[C@@H]1COCCN1C2=NC(=NC(=C2)C3(CC3)[S@](=N)(=O)C)C4=C5C=CNC5=NC=C4 [AZD6738] (first compound max 1 µM, 7x7, partner max 10 µM)",0.55,0.85,0.769,0.748,0.926,0.959
"CN(CCO)CC[C@H](CSc1ccccc1)Nc1ccc(S(=O)(=O)NC(=O)c2ccc(N3CCC([C@@H](O)c4ccccc4-c4ccc(Cl)cc4)CC3)cc2)cc1S(=O)(=O)C(F)(F)F [AZD4320] + C[C@@H](Nc1cc(F)cc(F)c1)c1cc(C(=O)N(C)C)cc2c(=O)cc(N3CCOCC3)oc12 [AZD8186] (first compound max 1 µM, 7x7, partner max 3 µM)",0.548,0.335,0.794,0.414,0.564,0.373
"CN(CCO)CC[C@H](CSc1ccccc1)Nc1ccc(S(=O)(=O)NC(=O)c2ccc(N3CCC([C@@H](O)c4ccccc4-c4ccc(Cl)cc4)CC3)cc2)cc1S(=O)(=O)C(F)(F)F [AZD4320] + Cc1cc2ncnn2cc1Nc1ncc2c(n1)n(C1CCOCC1)c(=O)n2C [AZD7648] (first compound max 1 µM, 7x7, partner max 10 µM)",0.17,0.156,0.746,0.348,0.177,0.214
"CN(CCO)CC[C@H](CSc1ccccc1)Nc1ccc(S(=O)(=O)NC(=O)c2ccc(N3CCC([C@@H](O)c4ccccc4-c4ccc(Cl)cc4)CC3)cc2)cc1S(=O)(=O)C(F)(F)F [AZD4320] + Cn1cnc2c(F)c(Nc3ccc(Br)cc3Cl)c(C(=O)NOCCO)cc21 [Selumetinib] (first compound max 1 µM, 7x7, partner max 3 µM)",0.519,0.435,0.699,0.436,0.793,0.346
"Cc1c2c(nn1C)CSCc1cc(n(C)n1)CSc1cc(c3ccccc3c1)OCCCc1c(C(=O)O)n(C)c3c-2c(Cl)ccc13 [AZD5991] + C1CN(CCC1(C(=O)N[C@@H](CCO)C2=CC=C(C=C2)Cl)N)C3=NC=NC4=C3C=CN4 [Capivasertib] (first compound max 1 µM, 7x7, partner max 3 µM)",0.195,0.899,0.121,0.37,0.167,0.573
"Cc1c2c(nn1C)CSCc1cc(n(C)n1)CSc1cc(c3ccccc3c1)OCCCc1c(C(=O)O)n(C)c3c-2c(Cl)ccc13 [AZD5991] + C=CCn1c(=O)c2cnc(Nc3ccc(N4CCN(C)CC4)cc3)nc2n1-c1cccc(C(C)(C)O)n1 [AZD1775] (first compound max 1 µM, partner max 1 µM)",0.293,0.966,0.88,0.502,0.926,1
